By EC50 is commonly meant the midpoint of the concentration-response curve.

Structures are written as SMILES. Activity calls are given as the source filed them.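 Rule for the calls: active = growth-inhibition EC50 no more than tenfold above the top tested dose; inconclusive = flat fit between 30% and 70% inhibition, or unreliable fit; inactive = EC50 more than tenfold above the top tested dose.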

Here are results for 86 compounds from PubChem BioAssay AID1959 (Broad Institute, 2009).

In this assay the test system is E. coli NEB5alpha growth, BacTiter-Glo luminescence, 4 h. The experiment in a line: Escherichia coli growth inhibition, dose response, counter-screen for MEX-5/POS-1 RNA-binding inhibitor project, luminescence, NEB5alpha (AID 1959).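 Note: pUC19-transformed ampicillin-resistant cells grown in LB with ampicillin.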
In the case of `O=C1N=c2ccc([N+](=O)[O-])cc2=C1c1sc(=O)[nH]c1O`, the EC50 was > 11 µM (inactive).

`COc1cccc(C2C3CN(C)CC=C3C(C#N)=C(N)C2(C#N)C#N)c1OC` (stereo unspecified): the EC50 is > 11 µM (inactive).

Turning to `CC1(OC(=O)c2ccco2)C(=O)C=C2C=C(c3ccsc3)OC=C2C1=O` (stereo unspecified), the EC50 is > 11 µM (inactive).

For `Cc1cc(O)cc2c1C(=O)/C(=C/c1ccco1)O2`, the EC50 is > 11 µM (inactive).

Regarding `CSCC(C)N1CCC(N2CCC(C(=O)NCc3ccccn3)CC2)CC1` (stereo unspecified), the EC50 was > 11 µM (inactive).

`Cc1nc(S/C(=C/c2ccc(-c3ccc(C(=O)O)cc3)o2)C(=O)O)n[nH]1`: the EC50 was > 11 µM (inactive).

Consider `CCNC(=O)c1cc2c(=O)n3cccc(C)c3nc2n(Cc2ccc(C)cc2)c1=N`, for which the EC50 is > 11 µM (inactive).

Regarding `CCN(CC)CCN1C(=O)c2cccc3cc(N)cc(c23)C1=O`, the EC50 was > 11 µM (inactive).

Regarding `CCc1cc(=O)oc2cc(C)cc(OC(C)C(=O)O)c12` (stereo unspecified), the EC50 was > 11 µM (inactive).

`Cc1ccc(N=Nc2c(O)ccc3n[nH]nc23)cc1`: the EC50 is > 11 µM (inactive).

Regarding `COC(=O)c1ccc(C)c(-n2c(C)cc(C=O)c2C)c1`, the EC50 is > 11 µM (inactive).

As to `Cc1ccc(S(=O)(=O)CCSc2nc(C)cc(C(F)(F)F)c2C#N)cc1`, the EC50 was > 11 µM (inactive).

Consider `O=C(O)c1cccc(-n2cccc2/C=C2/SC(=O)N(CC(=O)N3CCCC3)C2=O)c1`, for which the EC50 is > 11 µM (inactive).

Take `COc1ccc(-n2c(NNC(C)=O)nc3sc4c(c3c2=O)CCCC4)cc1`: the EC50 was > 11 µM (inactive).

For the compound `COc1cc2c(cc1C1C(C#N)=C(N)OC3=C1C(=O)CC(C)(C)C3)OCO2` (stereo unspecified), the EC50 was > 11 µM (inactive).

For `CCCCOC(=O)Cn1c2ccc(OC)cc2c2nc3ccccc3nc21`, the EC50 is > 11 µM (inactive).

Take `CCOC(=O)c1cc(=O)n2nc(-c3ccccc3F)nc2s1`: the EC50 is > 11 µM (inactive).

As for `O=C1C([N+](=O)[O-])=C(O)c2cccc3cccc1c23`, the EC50 is > 11 µM (inactive).

For the compound `COc1ccc(/C=C2\SC(=S)N(CCCC(=O)NC3CCCC3)C2=O)cc1OC`, the EC50 is > 11 µM (inactive).

Turning to `COC(=O)c1cc(C(=O)OC)cc(-n2c(C)cc(C=O)c2C)c1`, the EC50 was > 11 µM (inactive).

As to `O=[N+]([O-])c1ccc(C2=Nc3cc(Cl)ccc3OC2)cc1`, the EC50 is > 11 µM (inactive).

For the compound `Cc1cc(C)cc(N2C(=O)/C(=C\c3ccc(N4CCN(C)CC4)o3)C(=O)NC2=S)c1`, the EC50 was > 11 µM (inactive).

For the compound `COc1ccc(C2=CC3=C(Br)C(=O)C(C)(OC(=O)c4ccc(Cl)nc4)C(=O)C3=CO2)cc1` (stereo unspecified), the EC50 is > 11 µM (inactive).

`O=C(O)c1ccccc1-n1c(-c2ccccc2)cc2c1CCCC2=O`: the EC50 was > 11 µM (inactive).

As to `CCOc1ccc2ccccc2c1C1NC(=O)N(C)C(C)=C1C(=O)OCCOC` (stereo unspecified), the EC50 is > 11 µM (inactive).

In the case of `O=C(O)CCC(=O)N1N=C(c2cccs2)CC1c1cn(-c2ccccc2)nc1-c1ccccc1` (stereo unspecified), the EC50 was > 11 µM (inactive).

Turning to `CCOC(=O)c1nn(-c2ccc(C)cc2)c2nc(Nc3ccccc3)cc(=O)n12`, the EC50 is > 11 µM (inactive).

On to `O=C1CS/C(=N/N=C/c2cccs2)N1`, for which the EC50 is > 11 µM (inactive).

Regarding `C/C(N)=C(/C#N)C(=O)CSc1ncnc2ccccc12`, the EC50 is > 11 µM (inactive).

In the case of `Cn1c(=O)[nH]c(=O)c2c1nc(N/N=C/C(Br)=C/c1ccccc1)n2CCO`, the EC50 is > 11 µM (inactive).

For the compound `O=c1[nH][nH]c2cc(=O)n(-c3ccc(Cl)cc3)nc12`, the EC50 is > 11 µM (inactive).

`O=C1CCC/C(=N/NC(=O)c2sc3ccccc3c2Cl)C1`: the EC50 was > 11 µM (inactive).

For the compound `Cc1ccc(Cn2c(=N)c(C(=O)NCC3CCCO3)cc3c(=O)n4ccccc4nc32)cc1` (stereo unspecified), the EC50 was > 11 µM (inactive).

For the compound `CCOc1cccc(=O)c2c(C)n(-c3ccc(C(=O)O)cc3)c(C)c12`, the EC50 is > 11 µM (inactive).

Turning to `Cc1ccccc1N1C(=O)NC(=O)/C(=C\c2cc(C)n(C)c2C)C1=O`, the EC50 is > 11 µM (inactive).

In the case of `COc1ccccc1N1C(=O)C2C(C(=O)c3ccccc3)=NN(c3ccc(C)cc3)C2C1=O` (stereo unspecified), the EC50 was > 11 µM (inactive).

In the case of `O=C(NNC(=O)c1ccccc1[N+](=O)[O-])c1cnccn1`, the EC50 was > 11 µM (inactive).

For `Cc1nc(S/C(=C/c2ccc(-c3ccc(Cl)cc3)o2)C(=O)O)n[nH]1`, the EC50 is > 11 µM (inactive).

For the compound `Cn1c(=O)c(N)c2c3c(c(Br)ccc31)C(=O)c1ccccc1-2`, the EC50 was > 11 µM (inactive).

Regarding `O=c1[nH]c(/C=C\c2ccc(O)c(O)c2)nc(O)c1[N+](=O)[O-]`, the EC50 is > 11 µM (inactive).

Regarding `Cn1cccc1/C=C1\C(=O)NC(=O)N(Cc2ccco2)C1=O`, the EC50 is > 11 µM (inactive).

In the case of `N=c1c(C(=O)NC2CCCCC2)cc2c(=O)n3ccccc3nc2n1Cc1ccc(F)cc1`, the EC50 is > 11 µM (inactive).

For the compound `N=c1c(C(=O)NC2CCCC2)cc2c(=O)n3ccccc3nc2n1Cc1ccccc1`, the EC50 was > 11 µM (inactive).

In the case of `CC1=CC(C)(C)N2C(=O)C3(C(C#N)=C(N)OC4=C3C(=O)CC(C)(C)C4)c3c(C)c(C)cc1c32` (stereo unspecified), the EC50 is > 11 µM (inactive).

For the compound `N#Cc1c(C#N)c(-c2ccccc2)n(-c2ccc(C(=O)O)cc2)c1N`, the EC50 was > 11 µM (inactive).

For `O=C1NC(=S)N(c2ccccc2)C(=O)/C1=C/c1ccco1`, the EC50 was > 11 µM (inactive).

With `CN1C(=O)c2ccccc2NC(=O)[C@]12O[C@@H]2c1cccc(O)c1`, the EC50 is > 11 µM (inactive).

Consider `CCOC(=O)/C(C#N)=C/c1cc2ccccc2nc1N1CCCCC1`, for which the EC50 is > 11 µM (inactive).

For `Cc1[nH][nH]c(=O)c1C(c1cc([N+](=O)[O-])ccc1O)c1c(C)[nH][nH]c1=O`, the EC50 was > 11 µM (inactive).

With `COc1cc2c(cc1OC)C(c1ccc(-c3ccc(Cl)c(Cl)c3)o1)=NCC2`, the EC50 is > 11 µM (inactive).

On to `Cc1cccc(NC(=O)c2sc3nc(-c4ccccc4)cn3c2C)n1`, for which the EC50 is > 11 µM (inactive).

As to `CN(C)c1ccc(/C=N/N(CCC(=O)NC(C)(C)C)C2=NS(=O)(=O)c3ccccc32)cc1`, the EC50 is > 11 µM (inactive).

Turning to `c1coc(-c2nnc(-c3ccco3)nn2)c1`, the EC50 is > 11 µM (inactive).

For `COc1ccccc1N1CC(C(=O)Nc2nnc(SCC(=O)NC(C)C)s2)CC1=O` (stereo unspecified), the EC50 is > 11 µM (inactive).

As for `COc1ccc(/C=c2\sc3nc(=O)c(C)nn3c2=O)c(OC)c1`, the EC50 was > 11 µM (inactive).

Consider `Cc1sc(/C=C2\C(=O)ON=C2c2ccccc2)cc1Br`, for which the EC50 is > 11 µM (inactive).

For `Cc1cnc(C(=O)NNC(=O)c2ccc(Br)cc2)cn1`, the EC50 is > 11 µM (inactive).

For the compound `O=C(NC(=S)NNS(=O)(=O)c1ccccc1)c1cccnc1`, the EC50 was > 11 µM (inactive).

As for `CCN(CC)c1ccc(N=Cc2c(O)n(-c3ccccc3)c(=O)[nH]c2=O)cc1`, the EC50 was > 11 µM (inactive).

As for `CCCCc1ccc(NC(=O)CSC2=NN3CCCC(=O)N=C3S2)cc1`, the EC50 is > 11 µM (inactive).

With `COc1ccc(N/C=C\C(=O)c2ccc(C)cc2)cc1OC`, the EC50 was > 11 µM (inactive).

For the compound `Cc1n[nH]c(C)c1N1C(=O)c2cccc3c(N4CCCCCC4)ccc(c23)C1=O`, the EC50 is > 11 µM (inactive).

Turning to `CN(C)c1ccc(/C=C/c2nc3ccccc3s2)cc1`, the EC50 is > 11 µM (inactive).

As for `CN=C1S/C(=C\c2ccc(N3CCCC3)c(F)c2)C(=O)N1C`, the EC50 is > 11 µM (inactive).

Consider `CSCC(C)N1CCC(Oc2cccc(C(=O)NCc3ccccn3)c2)CC1` (stereo unspecified), for which the EC50 is > 11 µM (inactive).

Take `CN1C(=O)NC(c2ccccc2[N+](=O)[O-])C2=C1CCCC2=O` (stereo unspecified): the EC50 was > 11 µM (inactive).

Consider `CSCC(C)N1CCC(n2nccc2NC(=O)CCCc2ccccc2)CC1` (stereo unspecified), for which the EC50 is > 11 µM (inactive).

Turning to `NS(=O)(=O)c1cc(C(=O)NC2CCSc3ccccc32)ccc1Cl` (stereo unspecified), the EC50 was > 11 µM (inactive).

Regarding `CCOC(=O)c1c(-c2ccccc2)csc1NC(=O)/C(C#N)=C/c1ccc(OC)c(OC)c1`, the EC50 is > 11 µM (inactive).

On to `Cc1nc2cc(N)ccc2n1C1CCCCC1`, for which the EC50 was > 11 µM (inactive).

Take `CCOc1ccc(Br)cc1S(=O)(=O)NC(=O)c1ccccc1`: the EC50 is > 11 µM (inactive).

As to `COC(=O)CCCC1=CC2=CC(=O)C(C)(O)C(=O)C2=CO1` (stereo unspecified), the EC50 is > 11 µM (inactive).

Regarding `O=C(N/N=C\C1C(=O)NC(=S)N(c2ccccc2)C1=O)c1ccc(O)cc1` (stereo unspecified), the EC50 was > 11 µM (inactive).

Turning to `CC1=CC(=C(C#N)c2nc3ccccc3s2)C=C(C)N1CC1CCCO1` (stereo unspecified), the EC50 was > 11 µM (inactive).

On to `O=C(Nc1ccc(Br)cn1)c1ccc2nccnc2c1`, for which the EC50 was > 11 µM (inactive).

Take `O=C(NNC(=O)c1ccccc1O)c1ccc(S(=O)(=O)Nc2ccccc2F)cc1`: the EC50 was > 11 µM (inactive).

As for `Cn1cc(/C=N/n2cnc3scc(-c4ccc(Cl)cc4)c3c2=O)c2ccccc21`, the EC50 was > 11 µM (inactive).

On to `CCN(CC)CCN=Cc1c(O)n(Cc2ccccc2)c(=O)[nH]c1=O`, for which the EC50 was > 11 µM (inactive).

With `O=C(O)c1ccc(-n2cccc2/C=C2/NC(=O)N(c3ccccc3)C2=O)cc1`, the EC50 is > 11 µM (inactive).

Regarding `O=C(O)c1cccc(-n2cccc2C=C2C(=O)c3ccccc3C2=O)c1`, the EC50 was > 11 µM (inactive).

Turning to `CC(=O)N(C)c1ccc(N=Nc2c(C)[nH]n(C(N)=S)c2=O)cc1`, the EC50 was > 11 µM (inactive).

Turning to `CCN(CC)c1ccc(N=Cc2c(O)n(-c3cc(OC)ccc3OC)c(=O)[nH]c2=O)cc1`, the EC50 was > 11 µM (inactive).

In the case of `CCc1c(C)nc(SCC(=O)c2cccs2)c(C#N)c1C`, the EC50 is > 11 µM (inactive).

For the compound `C=CCN1C(=O)S/C(=C\c2ccc(N3CCOCC3)cc2C)C1=O`, the EC50 was > 11 µM (inactive).

Take `COc1ccc(C(=O)/C=C2\NCC3c4ccccc4CCN3C2=O)cc1` (stereo unspecified): the EC50 is > 11 µM (inactive).

For the compound `Oc1ccc(/C=N/N2CCCCC2)c(O)c1O`, the EC50 is > 11 µM (inactive).
